Laboratory results from US11291674B2 (CALITHERA BIOSCIENCES, INC., priority 2016, dated 2022).
Values joined by “and” are separate entries in the source; they are usually repeats but may differ in a detail not shown here. Equal entries are not always repeated. “Also recorded” adds a separate entry of the source.

Assays:
Recombinant human Arg2 = target: T1, Recombinant human Arg2 (Homo sapiens, UniProt P78540); test: Recombinant arginase activity assay, Arg2; format: biochemical; conditions: mean (SD), N=2, 20 mM L-arginine
T1 construct: Recombinant human arginase 2 (Arg2) comprising amino acids […] was purchased from US Biological; purchased US Biological
T1 sequence (P78540 23-354): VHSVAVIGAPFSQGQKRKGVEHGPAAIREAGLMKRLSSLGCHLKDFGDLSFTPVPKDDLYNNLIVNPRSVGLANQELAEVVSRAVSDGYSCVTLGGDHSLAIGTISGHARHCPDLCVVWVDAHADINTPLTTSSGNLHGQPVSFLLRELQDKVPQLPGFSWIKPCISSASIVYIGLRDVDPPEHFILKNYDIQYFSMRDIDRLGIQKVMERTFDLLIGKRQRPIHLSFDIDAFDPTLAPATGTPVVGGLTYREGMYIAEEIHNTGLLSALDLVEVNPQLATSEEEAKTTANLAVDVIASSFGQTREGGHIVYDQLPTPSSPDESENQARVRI
Excerpt: Recombinant arginase activity assays. […] Recombinant human arginase 2 (Arg2) comprising amino acids […] was purchased from US Biological (Salem, Mass.).
(§1) Standard deviations are indicated in parentheses. […] N/A=not applicable.

[1] = target: T2, Rat cerebellar neuronal NOS (Rattus norvegicus, UniProt P29476); test: NOS activity assay, neuronal NOS; format: biochemical; conditions: 50 μM arginase inhibitor
T2 construct: native rat cerebellar neuronal NOS; tissue Eurofins/Cerep Panlabs (contract laboratory that ran the assay); host or cells: rat cerebellum
Excerpt: Nitric oxide (NO) synthase (NOS) activity assays.
as §1

[2] = Pharmacokinetic and pharmacodynamic study in LLC tumor-bearing mice; format: in vivo, mouse
Excerpt: (****P<0.0001; ***P<0.001; **P<0.01 vs. vehicle).

[3] = Tolerability and body weight in mice; format: in vivo
Excerpt: Murine tumor studies. Female wild-type C57BL/6 and Balb/c mice (5-6 weeks old) were purchased from Charles River Laboratories (Hollister, Calif.). Severe combined immune deficient (SCID, B6.CB17-PrkdcSCID/SzJ) and Pmel-1 TCR transgenic (B6.Cg-Thyla/Cy Tg(TcraTcrb)8Rest/J) mice (5-6 weeks old) were purchased from The Jackson Laboratory (Bar Harbor, Me.). All mice were housed and treated in accordance with Institutional Animal Care and Use Committee guidelines. For the 4T1 tumor model, 1×10^5 cells were injected orthotopically into the mammary fat pad; for all other tumor models, 1×10^6 cells were injected subcutaneously (s.c.) in the right flank. […] Control groups received vehicle (water) twice daily by gavage. Tumor volume measured by digital caliper (length×width×width/2) and body weight were recorded three times weekly. Animals were euthanized when tumors necrotized or volumes reached 2000 mm^3. Anti-PD-L1 antibody (5 mg/kg, clone 10F.9G2, BioXCell, West Lebanon, N.H.) was injected intraperitoneally (i.p.) on days 5, 7, 9, 11, 13, and 15 for the CT26 model. Gemcitabine (Selleckchem, Houston, Tex.) was dosed 50 mg/kg i.p. on days 10 and 16 for the CT26 model or 60 mg/kg i.p. on days 6 and 10 for the LLC model. For CD8^+ cell depletion, mice were injected i.p. with anti-CD8 antibody (25 mg/kg, clone 2.43, BioXCell) on days −1, 0, +5, and +10. […]

CT26 tumors = format: in vivo
Excerpt: (§2) Murine tumor studies. Female wild-type C57BL/6 and Balb/c mice (5-6 weeks old) were purchased from Charles River Laboratories (Hollister, Calif.). Severe combined immune deficient (SCID, B6.CB17-PrkdcSCID/SzJ) and Pmel-1 TCR transgenic (B6.Cg-Thyla/Cy Tg(TcraTcrb)8Rest/J) mice (5-6 weeks old) were purchased from The Jackson Laboratory (Bar Harbor, Me.). All mice were housed and treated in accordance with Institutional Animal Care and Use Committee guidelines. For the 4T1 tumor model, 1×10^5 cells were injected orthotopically into the mammary fat pad; for all other tumor models, 1×10^6 cells were injected subcutaneously (s.c.) in the right flank. […] Control groups received vehicle (water) twice daily by gavage. Tumor volume measured by digital caliper (length×width×width/2) and body weight were recorded three times weekly. Animals were euthanized when tumors necrotized or volumes reached 2000 mm^3. Anti-PD-L1 antibody (5 mg/kg, clone 10F.9G2, BioXCell, West Lebanon, N.H.) was injected intraperitoneally (i.p.) on days 5, 7, 9, 11, 13, and 15 for the CT26 model. Gemcitabine (Selleckchem, Houston, Tex.) was dosed 50 mg/kg i.p. on days 10 and 16 for the CT26 model or 60 mg/kg i.p. on days 6 and 10 for the LLC model. For CD8^+ cell depletion, mice were injected i.p. with anti-CD8 antibody (25 mg/kg, clone 2.43, BioXCell) on days −1, 0, +5, and +10. For NK cell depletion, mice were injected i.p. with anti-NK1.1 antibody (25 mg/kg, clone PK136, BioXCell) in the LLC and B16 models or with anti-Asialo GM1 sera (20 μL, Wako Chemicals, Richmond, Va.) in the CT26 model, per the same schedule as anti-CD8.
(§3) Tumor dissociation and flow cytometry. […] Excised tumors were placed in RPMI-1640 containing 5% FBS on ice, minced with a razor blade, and dissociated in RPMI-1640 supplemented with mouse tumor dissociation enzymes (Miltenyi Biotec, Bergisch Gladbach, Germany) on a GentleMACS Octo Dissociator With Heat (Miltenyi Biotec) according to the manufacturer's instructions. Dissociated tumors were strained through 70 μm nylon mesh, washed with cold PBS containing 2% FBS, blocked with anti-CD16/CD32 (Fc block antibody, eBioscience), and stained for cell surface antigens. For B16 and 4T1 tumors, washed dissociated tumor cells were incubated with Dead Cell Removal MicroBeads (Miltenyi Biotec) and applied to a magnetic column prior to staining. For intracellular staining, cells were fixed and permeabilized using buffers purchased from R&D Systems or eBioscience for cytoplasmic or nuclear antigens, respectively. All tumor flow experiments were acquired on an Attune N×T flow cytometer and analyzed with FlowJo software version 10 (Ashland, Oreg.), using fluorescence-minus-one controls for gating and single-stained OneComp eBeads (eBioscience) to set compensation matrices.

B16 tumors [4] = test: B16 syngeneic tumor model; format: in vivo
Excerpt: as §2
Tumor dissociation and flow cytometry. […] All tumor flow experiments were acquired on an Attune N×T flow cytometer and analyzed with FlowJo software version 10 (Ashland, Oreg.), using fluorescence-minus-one controls for gating and single-stained OneComp eBeads (eBioscience) to set compensation matrices.

4T1 tumors = test: 4T1 orthotopic tumor model; format: in vivo, mouse
Excerpt: as §2, §3

B16 tumors [5] = test: Adoptive T cell transfer study, B16 model; format: in vivo, mouse; conditions: compared to either single agent; all groups cyclophosphamide plus fludarabine
Method: Adoptive T cell transfer studies. Activated gp100-specific CD8^+ (Pmel-1) T cells were generated as described in Ya et al. Briefly, splenocytes from Pmel-1 TCR transgenic mice were isolated, pulsed with 1 μM of murine gp10025-33 (Anaspec, Fremont, Calif.) and expanded for 1 week in the presence of 60 IU/mL recombinant human IL-2 (Peprotech, Rocky Hill, N.J.). Cells were >90% CD8^+Vβ13^+ T cells as determined by flow cytometry. C57BL/6 mice were inoculated s.c. with B16 tumor cells. […] On day 7, lymphopenia was induced by a non-myeloablative chemotherapy regimen of 250 mg/kg cyclophosphamide and 50 mg/kg fludarabine administered i.p. The chemotherapy regimen was administered to all groups. On day 9, mice were administered 1×10^6 Pmel-1 T cells intravenously (i.v.). Mice receiving Pmel-1 T cells also received recombinant human IL-2 (200,000 IU/dose) administered i.p. twice daily for 3 days starting the day of T cell transfer.

[6] = 100 mg/kg twice daily, depleting antibodies
[7] = 100 mg/kg BID, study day 10, flow cytometry

C[C@H](N)C(=O)N1C[C@H](CCCB(O)O)[C@](N)(C(=O)O)C1 [arginase inhibitor]
IC50 (Recombinant human Arg2): 0.274 µM and 0.296 µM | Inhibition of neuronal NOS [1]: No inhibition | L-arginine in tumor and plasma ([2]; oral dosing, tumor-bearing mice): raised the amount of L-arginine | Exposure of arginase inhibitor in tumor and plasma ([2]; single dose or BID dosing for 5 days, oral, 2 h after last dose): dose-dependent exposure | Tolerability ([3]; 100 mg/kg twice daily for 23 days, no significant clinical observations or impact on body weight): well-tolerated | Duration for which twice-daily oral dosing was well-tolerated ([3]; mice): at least 40 days | Tumor growth, single agent (CT26 tumors; 100 mg/kg BID PO): significantly inhibited the growth; also recorded: reduced | Tumor-infiltrating activated CD25+ CD8+ cytotoxic T cells vs vehicle (CT26 tumors; 100 mg/kg BID, study day 14, flow cytometry): increase | Efficacy after depletion of either CD8+ cells or NK cells (CT26 tumors; [6]): blocked the efficacy | Tumor growth inhibition, combination with anti-PD-L1 (CT26 tumors; arginase inhibitor 100 mg/kg BID plus anti-PD-L1 5 mg/kg i.p., vs monotherapies): enhanced | Survival at study day 46, combination with anti-PD-L1 (CT26 tumors; arginase inhibitor plus anti-PD-L1): 90% | Complete responses, combination with anti-PD-L1 (CT26 tumors; arginase inhibitor plus anti-PD-L1, N=10 per group): six | Tumor growth inhibition, combination with gemcitabine (CT26 tumors; gemcitabine 50 mg/kg i.p. days 10 and 16): significant increase in tumor growth inhibition | Tumor growth, single agent (B16 tumors [4]; 100 mg/kg BID PO): significantly inhibited the growth | Tumor-infiltrating activated CD25+ CD8+ cytotoxic T cells vs vehicle (B16 tumors [4]; 100 mg/kg BID, study day 9, flow cytometry): increase | Efficacy after depletion of either CD8+ cells or NK cells (B16 tumors [4]; [6]): blocked the efficacy | Tumor growth, single agent (4T1 tumors; 100 mg/kg BID PO): significantly inhibited the growth; also recorded: modest effect on tumor growth | CD3+ T cells in the tumor vs vehicle (4T1 tumors; [7]): increase | Myeloid cells in the tumor vs vehicle (4T1 tumors; [7]): decrease | NK cells in the tumor vs vehicle (4T1 tumors; [7]): increase | Tumor growth, combination with T cells specific for the PMEL tumor antigen (B16 tumors [5]): significantly reduced tumor growth
